For 121 compounds, melting point results are on record in a melting point compilation (Tetko et al.).

The structures appear in SMILES notation.

In general, melting point refers to the temperature of the solid-liquid transition. `Cc1cc(=O)[nH]c(SCC(=O)O)c1C#N` showed a melting point of 198 to 200 °C.

In turn, `CN1CCN(S(=O)(=O)c2ccc(Cl)nc2)CC1` registered a melting point of 129 to 131 °C.

Compound `COc1cc(CC(=O)O)ccc1C` returned a melting point of 74 to 76 °C.

In the case of `CCc1ccc(C(=O)c2ccc(N)cc2)o1`, the melting point is 124 to 126 °C.

Consider `CC(=O)c1cnn(-c2ccc(C#N)cc2)c1C`, for which the melting point is 152 to 154 °C.

The compound `CC(Cl)C(=O)Nc1ccc(OCc2ccccc2)cc1` (stereo unspecified) registered a melting point of 141 to 145 °C.

As for `CC(C)=C(F)C(=O)O`, the melting point lay in the range of 64 to 66 °C.

With `CCN(CC)C(C(N)=O)c1ccccc1` (stereo unspecified), the melting point was 141 to 143 °C.

On to `COc1cc(C(=O)Oc2ccc(C=O)cc2)cc(OC)c1OC`, for which the melting point fell in the range of 113 to 115 °C.

For `CCn1ccnc1C(O)CCc1ccccc1` (stereo unspecified), the melting point is 77 to 79 °C.

In the case of `O=C(CCl)c1c[nH]c(C(=O)N2CCCC2)c1`, the melting point was in the range of 200 to 204 °C.

Compound `Cc1cc(CN)cc(C)c1O` yielded a melting point of 99 to 101 °C.

Take `Nc1nc2ccccc2n1CCCn1ccnc1`: the melting point lay within 178 to 180 °C.

Regarding `O=C(O)C=CC(=O)Nc1ccc(F)c(Cl)c1`, the melting point lay within 189 to 191 °C.

In turn, `O=Cc1ccc(-c2ccc(F)cc2)s1` had a melting point of 111 to 113 °C.

Turning to `NC(=S)N1CCS(=O)(=O)CC1`, the melting point was 233 to 235 °C.

`CC(=O)c1ccc(N2CCOCC2)c(F)c1` had a melting point of 84 to 86 °C.

In turn, `O=C(CCl)NCCc1nc2ccccc2s1` displayed a melting point of 90 to 92 °C.

`Cc1sc2[nH]c(=O)oc(=O)c2c1C` displayed a melting point of 199 to 201 °C.

As to `O=C(O)C1=NC=CN2CCS(=O)(=O)N=C12`, the melting point lay in the range of 183 to 187 °C.

`CC=Cc1ccc(OCCCC(=O)OC)c(OC)c1`: the melting point was in the range of 38 to 40 °C.

The compound `CCN1CCN(c2ccc(N)cc2)CC1` came in with a melting point of 70 to 72 °C.

As for `O=C(O)Cc1cc2c(cc1Br)OCCO2`, the melting point was in the range of 220 to 222 °C.

Compound `CCOC(=O)c1ccc(S(=O)(=O)N2CCCC2C(=O)O)o1` (stereo unspecified) gave a melting point of 124 to 126 °C.

Take `C=CCNc1nc(-c2ccccc2)cs1`: the melting point was 74 to 76 °C.

Turning to `CCc1c(C)nc2ccccc2c1N`, the melting point fell in the range of 148 to 150 °C.

In turn, `Nc1cc(N2CCCS2(=O)=O)ccc1F` showed a melting point of 102 to 104 °C.

`Cc1cc(CC#N)c(C)n1-c1ccc(Cl)cc1` came in with a melting point of 74 to 76 °C.

The compound `CC(Oc1cccc(Br)c1)C(=O)NN` (stereo unspecified) had a melting point of 113 to 115 °C.

`O=C(NCCc1ccccn1)OCC(F)(F)F` showed a melting point of 59 to 61 °C.

As for `CC(C)Nc1ccccn1`, the melting point lay in the range of 41 to 43 °C.

The compound `O=C(O)CCOc1ccc([N+](=O)[O-])cc1` registered a melting point of 116 to 118 °C.

Consider `O=C(O)C1CCCN(c2ccc(Cl)nn2)C1` (stereo unspecified), for which the melting point lay within 179 to 181 °C.

Compound `Cc1ccc(-n2cnnn2)cc1NC(=O)OCC(F)(F)F` registered a melting point of 199 to 201 °C.

The compound `Cn1cc(CN=[N+]=[N-])c(-c2ccc(C#N)cc2)n1` had a melting point of 101 to 103 °C.

The compound `Cn1c(Cl)c(C=O)c2ccccc21` returned a melting point of 92 to 94 °C.

Turning to `Cc1nn(C)c(C)c1C(O)C(F)(F)F` (stereo unspecified), the melting point fell in the range of 140 to 142 °C.

On to `CNC(C(=O)O)c1ccc(F)cc1` (stereo unspecified), for which the melting point lay in the range of 276 to 278 °C.

`Cc1ccc(S(=O)(=O)Cc2ccc(C(=O)O)cc2)cc1` had a melting point of 281 to 283 °C.

For the compound `CC(C)(C)OC(=O)c1cc(C(=O)O)nn1-c1ccccc1`, the melting point was 259 to 261 °C.

As to `O=C(O)CSc1nnc(-c2ccccc2)o1`, the melting point is 169 to 171 °C.

The compound `CC(Oc1ccc(C#N)cc1)C(=O)NN` (stereo unspecified) showed a melting point of 129 to 131 °C.

`CN(C)c1ccc(N2C(=O)C=CC2=O)cc1` had a melting point of 152 to 154 °C.

With `Cc1nn(-c2ccc(Br)cc2)cc1C=O`, the melting point was in the range of 111 to 113 °C.

`Cc1cc(Br)cc(C)c1C(=O)O` yielded a melting point of 184 to 186 °C.

In the case of `O=C(O)C1(c2ccc(F)cc2)CCOCC1`, the melting point lay in the range of 156 to 158 °C.

`CC(=O)Nc1cc(C#N)ccc1S(C)(=O)=O` had a melting point of 145 to 147 °C.

Regarding `Cc1csc(N2CCC(=O)CC2)n1`, the melting point was 59 to 61 °C.

For the compound `O=C(O)c1ccc(Cl)c(N2CCNC2=O)c1`, the melting point lay within 290 to 292 °C.

In the case of `O=C1CCC(O)(c2ccccc2)CC1`, the melting point was in the range of 126 to 128 °C.

Take `N#Cc1c(S)nc(CCc2ccccc2)c2c1CCCC2`: the melting point lay within 224 to 226 °C.

The compound `O=S(=O)(Cl)c1ccc(OCC2CCCCC2)cc1` returned a melting point of 82 to 84 °C.

`COc1ccc(CNS(C)(=O)=O)cc1` registered a melting point of 89 to 91 °C.

The compound `Nc1cnn(-c2cccc(C(F)(F)F)c2)c1` displayed a melting point of 82 to 84 °C.

`Cc1cc(=O)oc2cc(OCC(=O)O)ccc12`: the melting point is 206 to 208 °C.

`O=C(Nc1cccc(O)c1)c1cccs1`: the melting point is 154 to 156 °C.

For `COc1cc(C(=O)O)cc(Cl)c1OC`, the melting point lay in the range of 191 to 193 °C.

Take `O=C(O)CNC(=O)NCc1ccc(F)cc1`: the melting point was 169 to 171 °C.

In the case of `CCS(=O)(=O)N1CCc2cc(C(=O)CCl)ccc21`, the melting point fell in the range of 231 to 233 °C.

`O=C(O)c1ccc2c(c1)S(=O)(=O)N(C1CC1)C2=O` yielded a melting point of 283 to 285 °C.

For `Cn1nc(C(C)(C)C)c2cc(C(=O)O)cnc21`, the melting point lay in the range of 243 to 245 °C.

`Cc1nc2ccccc2n1N` returned a melting point of 145 to 147 °C.

Turning to `O=C(O)C1CC1c1ccccc1OC(F)(F)F` (stereo unspecified), the melting point fell in the range of 94 to 96 °C.

As for `O=S(=O)(O)c1nc2ccccc2[nH]1`, the melting point is 116 to 119 °C.

Take `O=C(O)c1cc2cc(Br)sc2[nH]1`: the melting point was 164 to 166 °C.

Regarding `Cc1nnc(Br)s1`, the melting point fell in the range of 106 to 108 °C.

`CC(C)N1C2CCC1CC(C(=O)O)C2` (stereo unspecified) showed a melting point of 223 to 225 °C.

Compound `CC1Cc2ccccc2N1Cc1occc1C(=O)O` (stereo unspecified) gave a melting point of 186 to 188 °C.

Compound `Cc1ccc(C(C)(C)CC(=O)O)cc1` yielded a melting point of 50 to 57 °C.

Turning to `COc1ccc(C=O)cc1OCc1ccc([N+](=O)[O-])cc1`, the melting point is 109 to 111 °C.

The compound `O=C(O)c1ccc(S(=O)(=O)N2CCCc3ccccc32)cc1` had a melting point of 170 to 172 °C.

The compound `Cn1cc(C(=O)O)c(=O)n(C)c1=O` registered a melting point of 189 to 191 °C.

Regarding `C#CCOc1ccccc1C=O`, the melting point lay in the range of 70 to 72 °C.

`Cc1cc(C=O)c(C)n1-c1ccc(F)c(F)c1F`: the melting point fell in the range of 89 to 91 °C.

The compound `O=C(O)c1cnoc1-c1ccco1` returned a melting point of 195 to 197 °C.

In the case of `CCC(C)n1ncc(C(=O)O)c1C1CC1` (stereo unspecified), the melting point is 116 to 118 °C.

`COC(OC)(OC)c1cc2ccccc2c(=O)[nH]1` gave a melting point of 131 to 133 °C.

With `CCC(=O)NC(C)C(=O)O` (stereo unspecified), the melting point was 89 to 91 °C.

In the case of `O=c1[nH]c(CCl)nc2c1cnn2-c1ccccc1`, the melting point is 259 to 261 °C.

Turning to `Sc1nnc(Nc2ccccc2)s1`, the melting point was in the range of 160 to 162 °C.

As for `CCc1nnc(S)n1N`, the melting point is 143 to 145 °C.

The compound `CCOC(=O)C(O)c1ncc(Cl)n1C` (stereo unspecified) came in with a melting point of 85 to 87 °C.

In the case of `O=C(O)c1cnc(-c2ncccn2)s1`, the melting point is 217 to 219 °C.

`CS(=O)(=O)CCCI` showed a melting point of 59 to 61 °C.

`O=C(O)CN(Cc1cccnc1)c1ccccc1` had a melting point of 136 to 138 °C.

In the case of `COC(=O)c1ccc(CC#N)cc1`, the melting point lay in the range of 55 to 58 °C.

Compound `NC(=NO)c1ccc([N+](=O)[O-])cc1` came in with a melting point of 187 to 189 °C.

Consider `Cc1ccccc1Nc1nc(N)nc(CCl)n1`, for which the melting point lay within 203 to 207 °C.

`CS(=O)(=O)Nc1ccc(F)cc1C(=O)O`: the melting point was 204 to 206 °C.

The compound `NC(=S)c1ccn[nH]1` registered a melting point of 183 to 185 °C.

Compound `CCOC(=O)CSc1nnc(-c2cccs2)o1` displayed a melting point of 53 to 55 °C.

`CCOC(=O)CN(CCC#N)c1ccc(OC)cc1` had a melting point of 61 to 63 °C.

`CCC(=O)c1ccc(Cl)c(Cl)c1O` showed a melting point of 98 to 100 °C.

Take `CN(C)S(=O)(=O)c1ccc(=O)[nH]c1`: the melting point lay within 212 to 216 °C.

Compound `CS(=O)(=O)c1ccc(N)c(Br)c1` yielded a melting point of 207 to 209 °C.

`CN(CC(=O)N1CCCC(C(=O)O)C1)c1ccc(Cl)cn1` (stereo unspecified): the melting point fell in the range of 184 to 186 °C.

`O=C(O)CCC(=O)c1ccc(S(=O)(=O)Cl)cc1`: the melting point is 126 to 128 °C.

The compound `Cc1c(N)cnn1CCC(C)C` returned a melting point of 46 to 48 °C.

As to `O=C(c1ccccc1)c1c(Cl)cccc1Cl`, the melting point is 82 to 84 °C.

`O=C1Nc2cc3c(cc2C1=O)OCCCO3` came in with a melting point of 230 to 232 °C.

The compound `CC(=O)Nc1cccc(NC(=O)C2CCNCC2)c1` yielded a melting point of 199 to 201 °C.

The compound `Cc1ccc(N)cc1S(=O)(=O)NC1CC1` displayed a melting point of 131 to 133 °C.

In turn, `CC1CN(c2ccc(N)cc2F)CC(C)O1` (stereo unspecified) returned a melting point of 116 to 118 °C.

As for `NCC1CC(O)CN1Cc1ccccc1` (stereo unspecified), the melting point lay in the range of 54 to 56 °C.

As to `O=C(CCl)Nc1nc(-c2ccccc2Cl)c(-c2ccccc2Cl)s1`, the melting point lay in the range of 135 to 137 °C.

In the case of `NNC(=O)C(=O)NCc1ccco1`, the melting point was in the range of 158 to 160 °C.

`CC(C)CNCC(O)c1ccc(F)cc1` (stereo unspecified): the melting point fell in the range of 56 to 58 °C.

In turn, `ClCc1cnc(Cl)s1` had a melting point of 31 to 33 °C.

As to `O=c1cc(CS)nc2ccccn12`, the melting point was in the range of 119 to 121 °C.

`CS(=O)(=O)OC1CCCC(S(C)(=O)=O)C1` (stereo unspecified) came in with a melting point of 119 to 121 °C.

`O=C(O)c1cccn1CCc1ccccc1` had a melting point of 119 to 121 °C.

The compound `CC(=O)c1cc(C#N)c(SCC(=O)O)nc1C` yielded a melting point of 187 to 189 °C.

`NC(=S)c1cc(Br)cs1`: the melting point fell in the range of 199 to 201 °C.

`COc1ccc(Cl)cc1C(C)=O` displayed a melting point of 33 to 35 °C.

In turn, `CC(Cl)C(=O)N(c1nccs1)C1CCCCC1` (stereo unspecified) returned a melting point of 82 to 84 °C.

As for `Cn1ccnc1C(O)C1CCNCC1` (stereo unspecified), the melting point lay within 207 to 209 °C.

Compound `O=Cc1ccc(OCc2ccccc2)c(Br)c1` displayed a melting point of 96 to 98 °C.

`Nc1ccc(-c2nnc(O)o2)cc1` returned a melting point of 166 to 168 °C.

`O=C1NC(=O)C2(CC(C(=O)O)C2)N1` (stereo unspecified) returned a melting point of 246 to 248 °C.

In turn, `CC(C)(C)C(=O)Nc1ccccc1C(=O)O` came in with a melting point of 157 to 159 °C.

Compound `CN(CCCN1C(=O)C=CC1=O)c1ccccc1` yielded a melting point of 84 to 86 °C.
